This is an account of results in patent US10047049B2, “Process for preparing pridopidine” (priority 2015, dated 2018).

In brackets after ≈: the same amount, converted by molar mass.

Data set [1] is classed as physicochemical. An excerpt:
The purity profile of the isolated Compound 9 was better when performing the crystallization from water (Batch 2602 and Batch 2603; both had purities over 99.5%) compared to both crystallization from water/MTBE mixture (purity of 98.5%) and pure MTBE (Batch 2601; purity was 98.5%). The major improvement is removal of early eluting/polar impurities. The yield of the present method may be slightly lower because there will be a small loss of material in the mother liquor. Estimated solubility of Compound 9 in the mother liquor at 5-20° C. is 0.8-0.9% (Batch 2602 and Batch 2603). In the current method this would correspond to 4-5% of the material being lost. This is considered an acceptable loss because of the improved purity of Compound 9.

The conditions of data set [2]: cited from earlier work.

On to `CCCN1CCC(O)(c2cccc(SC)c2)CC1` [Compound 9, 4-(3-(methylthio)phenyl)-1-propylpiperidin-4-ol], for which, in data set [1], the “Estimated solubility in the mother liquor” value is 0.8-0.9%.
`CSc1ccccc1` [TA, thioanisole]: the “solubility (water)” value in data set [2] was 500 µg/mL (≈ 4.03 mM).
On to `CCCCCCBr` [hexyl bromide], for which the “solubility in water” value in data set [2] is on record as “insoluble in water”.
